The values that follow are results of earlier work, collected in patent US9687445B2, “Oral film containing opiate enteric-release beads” (LTS Lohmann Therapie-Systeme AG, priority 2012, dated 2017).

For `C=CCN1CC[C@]23c4c5ccc(O)c4O[C@H]2C(=O)CC[C@@]3(O)[C@H]1C5` [naloxone], the pKa entry is “about 7.94”.
